Measurements taken from patent US9738634B2, “Heterocyclic amide compound and herbicide” (SYNGENTA PARTICIPATIONS AG, priority 2013, dated 2017).

Legend:
Format in all cases: in vivo
wild oat = experiment: Test Example 3: weedkilling efficacy through soil treatment; G: wild oat; settings: soil treatment, treatment dosage 315 g/ha
Source text: (§1) Weedkilling Efficacy Test Through Soil Treatment
(§2) Sterilized diluvial soil was introduced into 21 cm long, 13 cm wide, 7 cm deep plastic boxes, and seeds of crabgrass, green foxtail, barnyard grass, wild oat, black-grass, Italian ryegrass, common wind-grass, Indian mallow, redroot pigweed, fig-leafed goosefoot, chickweed, catchweed, birds-eye speedwell, corn, soybean, rice, wheat, beet and rapeseed were each spot-sown, and covered with about 1.5 cm of soil. Next, emulsions of compounds of the present invention prepared according to compounding example 2 were diluted with water to give the specified dosages, and applied uniformly onto the soil surface with a small sprayer. The plants were grown by placing the plastic boxes in a greenhouse at 25 to 30° C., and 3 weeks after the pesticide treatment the effect on each type of plant was investigated on the basis of the assessment criteria of test example 1.
(§3) A: barnyard grass, B: bulrush, C: oval-leafed pondweed, D: crabgrass, E: green foxtail, F: barnyard grass, G: wild oat, H: black-grass, I: Italian ryegrass, J: common wind-grass, K: Indian mallow, L: redroot pigweed, M: fig-leafed goosefoot, N: chickweed, O: catchweed, p: birds-eye speedwell, a: transplanted rice, b: directly sown rice, c: corn, d: soybean, e: wheat, f: beet, g: rapeseed
(§4) Further, pesticide dosage (g/ha) indicates the concentration regulated such that treatment was with only the stated number of grams (g), when calculated per hectare (ha).

wheat = experiment: Test Example 3: soil treatment, effect on crop; e: wheat; settings: soil treatment, treatment dosage 315 g/ha
Source text: as §1, §2, §3, §4

corn = experiment: Test Example 3: soil treatment, effect on crop; c: corn; settings: soil treatment, treatment dosage 315 g/ha
Source text: as §1, §2, §3, §4

Italian ryegrass = experiment: Test Example 3: weedkilling efficacy through soil treatment; I: Italian ryegrass; settings: soil treatment, treatment dosage 315 g/ha
Source text: as §1, §2, §3, §4

barnyard grass [1] = experiment: Test Example 1: weedkilling efficacy, preemergent weed treatment in the submerged state; A: barnyard grass; settings: treatment dosage 252 g/ha
Summary of the method: (§5)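 Emulsion diluted with water to the specified per-hectare dosage is applied onto flood water (4 cm) over alluvial soil on the sowing day, with barnyard grass, bulrush and pondweed seeded and rice (2.5-leaf) transplanted; plants grow at 25–30 °C and are rated at 3 weeks.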

barnyard grass [2] = experiment: Test Example 2: weedkilling efficacy, growth period weed treatment in the submerged state; A: barnyard grass; settings: treatment dosage 252 g/ha
Summary of the method: (§6)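 First, alluvial soil in pots is flooded to 4 cm and mixed seed is sown. Next, plants grow in a greenhouse at 25 to 30° C until the 1-2 leaf stage. Then diluted emulsion is applied onto the water surface at the given g/ha rate, and injury is assessed after 3 weeks.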

birds-eye speedwell = experiment: Test Example 3: weedkilling efficacy through soil treatment; p: birds-eye speedwell; settings: soil treatment, treatment dosage 315 g/ha
Source text: as §1, §2, §3, §4

crabgrass = experiment: Test Example 3: weedkilling efficacy through soil treatment; D: crabgrass; settings: soil treatment, treatment dosage 315 g/ha
Source text: as §1, §2, §3, §4

transplanted rice = experiment: Test Example 1: preemergent weed treatment in the submerged state, effect on crop; a: transplanted rice; settings: treatment dosage 252 g/ha
Summary of the method: as §5

directly sown rice = experiment: Test Example 3: soil treatment, effect on crop; b: directly sown rice; settings: soil treatment, treatment dosage 315 g/ha
Source text: as §1, §2, §3, §4

bulrush [3] = experiment: Test Example 1: weedkilling efficacy, preemergent weed treatment in the submerged state; B: bulrush; settings: treatment dosage 252 g/ha
Summary of the method: as §5

Indian mallow = experiment: Test Example 3: weedkilling efficacy through soil treatment; K: Indian mallow; settings: soil treatment, treatment dosage 315 g/ha
Source text: as §1, §2, §3, §4

fig-leafed goosefoot = experiment: Test Example 3: weedkilling efficacy through soil treatment; M: fig-leafed goosefoot; settings: soil treatment, treatment dosage 315 g/ha
Source text: as §1, §2, §3, §4

chickweed = experiment: Test Example 3: weedkilling efficacy through soil treatment; N: chickweed; settings: soil treatment, treatment dosage 315 g/ha
Source text: as §1, §2, §3, §4

bulrush [4] = experiment: Test Example 2: weedkilling efficacy, growth period weed treatment in the submerged state; B: bulrush; settings: treatment dosage 252 g/ha
Summary of the method: as §6

soybean = experiment: Test Example 3: soil treatment, effect on crop; d: soybean; settings: soil treatment, treatment dosage 315 g/ha
Source text: as §1, §2, §3, §4

beet = experiment: Test Example 3: soil treatment, effect on crop; f: beet; settings: soil treatment, treatment dosage 315 g/ha
Source text: as §1, §2, §3, §4

black-grass = experiment: Test Example 3: weedkilling efficacy through soil treatment; H: black-grass; settings: soil treatment, treatment dosage 315 g/ha
Source text: as §1, §2, §3, §4

oval-leafed pondweed [5] = experiment: Test Example 2: weedkilling efficacy, growth period weed treatment in the submerged state; C: oval-leafed pondweed; settings: treatment dosage 252 g/ha
Summary of the method: as §6

redroot pigweed = experiment: Test Example 3: weedkilling efficacy through soil treatment; L: redroot pigweed; settings: soil treatment, treatment dosage 315 g/ha
Source text: as §1, §2, §3, §4

oval-leafed pondweed [6] = experiment: Test Example 1: weedkilling efficacy, preemergent weed treatment in the submerged state; C: oval-leafed pondweed; settings: treatment dosage 252 g/ha
Summary of the method: as §5

green foxtail = experiment: Test Example 3: weedkilling efficacy through soil treatment; E: green foxtail; settings: soil treatment, treatment dosage 315 g/ha
Source text: as §1, §2, §3, §4

Row | SMILES | G: wild oat, weedkilling efficacy grade (wild oat) | e: wheat, effect on crop grade (wheat) | c: corn, effect on crop grade (corn) | I: Italian ryegrass, weedkilling efficacy grade (Italian ryegrass) | A: barnyard grass, weed kill grade (barnyard grass [1]) | A (barnyard grass) weedkilling efficacy grade (barnyard grass [2]) | D: crabgrass, weedkilling efficacy grade (crabgrass) | a: transplanted rice, effect on crop grade (transplanted rice) | b: directly sown rice, effect on crop grade (directly sown rice) | B: bulrush, weed kill grade (bulrush [3]) | K: Indian mallow, weedkilling efficacy grade (Indian mallow) | M: fig-leafed goosefoot, weedkilling efficacy grade (fig-leafed goosefoot) | N: chickweed, weedkilling efficacy grade (chickweed) | B (bulrush) weedkilling efficacy grade (bulrush [4]) | d: soybean, effect on crop grade (soybean) | f: beet, effect on crop grade (beet) | H: black-grass, weedkilling efficacy grade (black-grass) | C (oval-leafed pondweed) weedkilling efficacy grade (oval-leafed pondweed [5]) | L: redroot pigweed, weedkilling efficacy grade (redroot pigweed) | E: green foxtail, weedkilling efficacy grade (green foxtail) | further results
1 | Cc1csc(NC(=O)C(C)(C)N2COCN(c3ccccc3)C2=O)n1 [A-1-05] | 4 (weed kill ratio 70% or more, less than 90%) | 0 (weed kill ratio 5% or less (practically no effect)) | 1 (weed kill ratio 5% or more, less than 20%) | 5 (weed kill ratio 90% or more, (practically complete withering)) | 5 (weed kill ratio 90% or more, (practically complete withering)) | 3 (weed kill ratio 40% or more, less than 70%) | 5 (weed kill ratio 90% or more, (practically complete withering)) | 0 (weed kill ratio 5% or less (practically no effect)) | 5 (weed kill ratio 90% or more, (practically complete withering)) | 5 (weed kill ratio 90% or more, (practically complete withering)) | 4 (weed kill ratio 70% or more, less than 90%) | 3 (weed kill ratio 40% or more, less than 70%) | 4 (weed kill ratio 70% or more, less than 90%) | 5 (weed kill ratio 90% or more, (practically complete withering)) | 0 (weed kill ratio 5% or less (practically no effect)) | 3 (weed kill ratio 40% or more, less than 70%) | 5 (weed kill ratio 90% or more, (practically complete withering)) | 3 (weed kill ratio 40% or more, less than 70%) | 5 (weed kill ratio 90% or more, (practically complete withering)) | 5 (weed kill ratio 90% or more, (practically complete withering)) | P: birds-eye speedwell, weedkilling efficacy grade (birds-eye speedwell): 5 (weed kill ratio 90% or more, (practically complete withering)); C: oval-leafed pondweed, weed kill grade (oval-leafed pondweed [6]): 5 (weed kill ratio 90% or more, (practically complete withering))
2 | CC(C)(C(=O)Nc1cc(Cl)cc(Cl)n1)N1COCN(c2ccccc2)C1=O [A-2-17, N-(4,6-dichloropyridin-2-yl)-2-methyl-2-(4-oxo-5-phenyl-1,3,5-oxadiazinan-3-yl) propionamide] | 5 (weed kill ratio 90% or more, (practically complete withering)) | 4 (weed kill ratio 70% or more, less than 90%) | 4 (weed kill ratio 70% or more, less than 90%) | 5 (weed kill ratio 90% or more, (practically complete withering)) |  |  | 5 (weed kill ratio 90% or more, (practically complete withering)) |  | 5 (weed kill ratio 90% or more, (practically complete withering)) |  | 5 (weed kill ratio 90% or more, (practically complete withering)) | 5 (weed kill ratio 90% or more, (practically complete withering)) | 5 (weed kill ratio 90% or more, (practically complete withering)) |  | 5 (weed kill ratio 90% or more, (practically complete withering)) | 5 (weed kill ratio 90% or more, (practically complete withering)) | 5 (weed kill ratio 90% or more, (practically complete withering)) |  | 5 (weed kill ratio 90% or more, (practically complete withering)) | 5 (weed kill ratio 90% or more, (practically complete withering)) | P: birds-eye speedwell, weedkilling efficacy grade (birds-eye speedwell): 5 (weed kill ratio 90% or more, (practically complete withering))
3 | CC(C)(C(=O)Nc1cc(C(F)(F)F)cc(Cl)n1)N1COCN(c2ccccc2)C1=O [A-2-28] | 5 (weed kill ratio 90% or more, (practically complete withering)) | 1 (weed kill ratio 5% or more, less than 20%) | 1 (weed kill ratio 5% or more, less than 20%) | 5 (weed kill ratio 90% or more, (practically complete withering)) | 5 (weed kill ratio 90% or more, (practically complete withering)) | 5 (weed kill ratio 90% or more, (practically complete withering)) | 5 (weed kill ratio 90% or more, (practically complete withering)) | 2 (weed kill ratio 20% or more, less than 40%) | 5 (weed kill ratio 90% or more, (practically complete withering)) | 5 (weed kill ratio 90% or more, (practically complete withering)) | 4 (weed kill ratio 70% or more, less than 90%) | 5 (weed kill ratio 90% or more, (practically complete withering)) | 5 (weed kill ratio 90% or more, (practically complete withering)) | 5 (weed kill ratio 90% or more, (practically complete withering)) | 3 (weed kill ratio 40% or more, less than 70%) | 5 (weed kill ratio 90% or more, (practically complete withering)) | 5 (weed kill ratio 90% or more, (practically complete withering)) | 5 (weed kill ratio 90% or more, (practically complete withering)) | 4 (weed kill ratio 70% or more, less than 90%) | 5 (weed kill ratio 90% or more, (practically complete withering)) | C: oval-leafed pondweed, weed kill grade (oval-leafed pondweed [6]): 5 (weed kill ratio 90% or more, (practically complete withering))
4 | Cc1cccc(NC(=O)C(C)(C)N2COCN(c3ccccc3)C2=O)n1 [A-2-38] | 5 (weed kill ratio 90% or more, (practically complete withering)) | 0 (weed kill ratio 5% or less (practically no effect)) | 2 (weed kill ratio 20% or more, less than 40%) | 5 (weed kill ratio 90% or more, (practically complete withering)) | 5 (weed kill ratio 90% or more, (practically complete withering)) | 3 (weed kill ratio 40% or more, less than 70%) | 5 (weed kill ratio 90% or more, (practically complete withering)) | 0 (weed kill ratio 5% or less (practically no effect)) | 5 (weed kill ratio 90% or more, (practically complete withering)) | 5 (weed kill ratio 90% or more, (practically complete withering)) | 2 (weed kill ratio 20% or more, less than 40%) | 4 (weed kill ratio 70% or more, less than 90%) | 4 (weed kill ratio 70% or more, less than 90%) | 5 (weed kill ratio 90% or more, (practically complete withering)) | 2 (weed kill ratio 20% or more, less than 40%) | 4 (weed kill ratio 70% or more, less than 90%) | 5 (weed kill ratio 90% or more, (practically complete withering)) | 3 (weed kill ratio 40% or more, less than 70%) | 5 (weed kill ratio 90% or more, (practically complete withering)) | 5 (weed kill ratio 90% or more, (practically complete withering)) | C: oval-leafed pondweed, weed kill grade (oval-leafed pondweed [6]): 4 (weed kill ratio 70% or more, less than 90%)
